The values below come from article PMC11314561, “Design and Synthesis of Novel Aminoindazole-pyrrolo[2,3-b]pyridine Inhibitors of IKKα That Selectively Perturb Cellular Non-Canonical NF-κB Signalling” (Molecules, 2024).

Each structure is given as a SMILES string. Values after ≈ are worked out from the molar mass of the structure shown. A value given as a limit tells only on which side of the number the result lay.

Usually Ki stands for a measure of affinity in units of concentration, obtained from inhibition or displacement. As a reminder, the solubility is the concentration that dissolves in the medium under given conditions. Low readings indicate a poorly soluble substance, high ones a readily soluble substance. Broadly, the half-life is the time needed for the level to fall by half in the phase considered. A lower half-life goes with rapid decline.

One data set addresses T1, IKKα (Homo sapiens, UniProt O15111).
T1 sequence (O15111 1-745): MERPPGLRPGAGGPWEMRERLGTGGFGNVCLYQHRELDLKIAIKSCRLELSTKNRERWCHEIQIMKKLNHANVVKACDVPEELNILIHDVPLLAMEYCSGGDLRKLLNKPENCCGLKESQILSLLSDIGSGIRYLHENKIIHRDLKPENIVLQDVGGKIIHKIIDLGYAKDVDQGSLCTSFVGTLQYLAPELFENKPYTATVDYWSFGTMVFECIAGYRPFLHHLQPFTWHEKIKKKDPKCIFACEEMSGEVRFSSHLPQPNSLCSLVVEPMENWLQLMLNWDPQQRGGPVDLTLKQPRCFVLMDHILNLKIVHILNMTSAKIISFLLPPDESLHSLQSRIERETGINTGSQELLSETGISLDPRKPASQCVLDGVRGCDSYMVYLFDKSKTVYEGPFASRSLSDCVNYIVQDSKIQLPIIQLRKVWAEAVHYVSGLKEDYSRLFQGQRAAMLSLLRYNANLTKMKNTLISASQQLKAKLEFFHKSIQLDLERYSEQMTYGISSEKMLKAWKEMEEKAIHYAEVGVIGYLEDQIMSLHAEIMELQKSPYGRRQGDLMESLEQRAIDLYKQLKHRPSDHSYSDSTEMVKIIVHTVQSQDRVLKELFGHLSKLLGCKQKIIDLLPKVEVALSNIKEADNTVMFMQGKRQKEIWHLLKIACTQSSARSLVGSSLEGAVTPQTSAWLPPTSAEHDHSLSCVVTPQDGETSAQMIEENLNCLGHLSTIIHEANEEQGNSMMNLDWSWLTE
The experiment in a line: DELFIA kinase assay, IKKα. It counts as biochemical. The conditions noted are these: DELFIA kinase assay. The source says: To examine the pyrrolo[2,3-b]pyridines as an alternative scaffold, we adopted the AIPP core because it had similar dimensions to SU909 (1), with HBD/HBA motifs positioned at the scaffold extremities to interact with both the hinge region and the G-loop wall of IKKα, a rationale we had previously proposed as the basis for imparting selectivity. A preliminary set of AIPP derivatives was designed and synthesised to explore its utility as an IKK-targeting scaffold, whilst incorporating additional functionality through which to introduce selectivity for the IKKα isoform (2–4; Figure 3). This was achieved by initially adopting two different approaches: either appending a hydrophobic moiety to the pyrrolo[2,3-b]pyridine motif as a fused form to afford the tricyclic derivatives 2 and 3, or as a phenyl substituent to introduce flexibility with respect to the central pyrrolo[2,3-b]pyridine moiety in 4. When assessed against IKKα and IKKβ using our in-house DELFIA kinase assay […] The pyrrolo[2,3-b]pyridine was bound to the hinge region in the classical HBA/HBD motif with the GK+3 amide backbone, whilst the aminoindazole projected towards the top of the pocket to interact with the G-loop (Figure 4A). […] In both isoforms, the 2-phenyl moiety protruded away from the hinge towards the exposed solvent area.
(§1) IKKα and IKKβ inhibitory activity were determined using a dissociation-enhanced ligand fluorescent immunoassay (DELFIA) based on the protocol of HTScan™ IKKβ Kinase Assay (Cell Signaling Technology, Danvers, MA, USA) as described in [24].

For another data set, the target named is T2, IKKβ (Homo sapiens, UniProt O14920).
T2 sequence (O14920 1-756): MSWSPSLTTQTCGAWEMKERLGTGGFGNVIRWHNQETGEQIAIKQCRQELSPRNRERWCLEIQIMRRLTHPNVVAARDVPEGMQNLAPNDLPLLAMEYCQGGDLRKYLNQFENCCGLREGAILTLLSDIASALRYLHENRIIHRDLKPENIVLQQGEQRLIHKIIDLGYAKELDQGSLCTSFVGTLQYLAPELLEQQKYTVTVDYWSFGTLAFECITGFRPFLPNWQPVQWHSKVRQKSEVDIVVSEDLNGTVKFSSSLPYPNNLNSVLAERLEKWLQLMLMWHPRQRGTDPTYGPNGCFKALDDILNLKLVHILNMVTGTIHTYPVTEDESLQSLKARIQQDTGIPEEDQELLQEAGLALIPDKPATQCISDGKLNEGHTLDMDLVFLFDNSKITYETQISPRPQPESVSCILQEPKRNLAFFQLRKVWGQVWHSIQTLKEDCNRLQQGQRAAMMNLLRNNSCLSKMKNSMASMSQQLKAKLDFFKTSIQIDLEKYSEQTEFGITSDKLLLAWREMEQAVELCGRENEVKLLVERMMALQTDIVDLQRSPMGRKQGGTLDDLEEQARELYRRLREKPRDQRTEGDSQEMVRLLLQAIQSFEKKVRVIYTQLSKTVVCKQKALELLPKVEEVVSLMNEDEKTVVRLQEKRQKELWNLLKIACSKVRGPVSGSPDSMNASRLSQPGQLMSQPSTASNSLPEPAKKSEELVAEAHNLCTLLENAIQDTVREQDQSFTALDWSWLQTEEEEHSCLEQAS
Kind of data set: DELFIA kinase assay, IKKβ. It counts as biochemical. The following applies: read-out: Ki Values IKKβ. As to the method: as §1

The next data set can be described thus: Turbidimetric solubility. The data set is classed as physicochemical. The conditions noted are these: pH 7.4, aqueous buffer, kinetic from dmso stock, 0.01 M phosphate-buffered saline pH7.4. As to the method:
Pharmacokinetic studies were contracted to Sygnature Discovery Limited. Turbidimetric Solubility was determined by diluting compound solutions (1 μM, 3 μM, 10 μM, 30 μM, 100 μM) prepared in DMSO into 0.01 M phosphate-buffered saline pH7.4. Turbidimetry was used as the endpoint by measuring absorbance at 620 nm.

A short description of data set [1]: Mouse hepatocyte intrinsic clearance and half-life. It counts as in vitro ADME. The conditions noted are these: mouse CD1 hepatocytes. As to the method: Intrinsic clearance and half-life were determined using cryopreserved pooled mouse CD1 hepatocytes. Test compounds were analysed at 1 µM in Williams Media E buffer (0.01% DMSO) at a cell density of 0.5 × 10^6 cells mL^–1. Cells were incubated at 37 °C for one hour with shaking, and compound depletion was measured by LC-MS/MS at six time points (0.25, 5, 10, 20, 40, and 60 min).

`Nc1n[nH]c2ccc(-c3ccnc4[nH]c(-c5cc(F)nc(CNc6ccccc6)c5)cc34)cc12` [Compound 6f]: the Ki at IKKα was found to be 33 nM; at IKKβ, 503 nM. In “Turbidimetric solubility”, this compound returned a solubility of 3.75 µM (≈ 1.69 µg/mL).

`Nc1n[nH]c2ccc(-c3ccnc4[nH]c(-c5ccnc(SCc6ccccc6)c5)cc34)cc12` [Compound 6h]: the Ki at IKKα turned out to be 5 nM; at IKKβ, 1180 nM. In addition, the solubility in the data set “Turbidimetric solubility” was found to be 2 µM (≈ 0.897 µg/mL).

Regarding `Nc1n[nH]c2ccc(-c3ccnc4[nH]c(-c5cc(OCc6ccccc6)ccn5)cc34)cc12` [Compound 6j], the figures for the Ki on IKKα and on IKKβ were 25 nM and 2300 nM, respectively. The compound further yielded a solubility in the data set “Turbidimetric solubility” of 2 µM (≈ 0.865 µg/mL).

`Nc1n[nH]c2ccc(-c3ccnc4[nH]c(-c5ccnc(OCc6ccncc6)c5)cc34)cc12` [Compound 6k]: the results for the Ki on IKKα and on IKKβ were 6 nM and 12 nM, respectively. Further, in data set [1] (cryopreserved pooled hepatocytes), the half-life at 1 µM was 2.02 h. The “Mouse Hepatocyte Clearance” value in data set [1] (1 µM) amounted to 11 μL/min/10^6 Cells. The solubility in the data set “Turbidimetric solubility” was more than 100 µM.
